Assay results from PubChem BioAssay AID298 (DTP/NCI, 2004).
“And” between values parts separate entries of the source, which are not always exact repeats. Equal entries are not always repeated. Results filed as inconclusive are left out.

System: MX-1 breast xenograft, intrarenal, nude mice, tumor weight
Assay: NCI In Vivo Anticancer Drug Screen. Data for tumor model Human Mammary Carcinoma MX-1 Xenograft (intrarenal inoculation) in NU/NU BALB/C (nude) mice
Settings: endpoint: mean tumor weight change, higher = larger tumour
Procedure: The antitumor activity of compounds was measured in mice bearing transplantable tumors. Survival or tumor size were measured and the results are expressed as the measurement made in the treated group (T) divided by the measurement made in the vehicle treated control group (C). The tumor model used in this assay is Human Mammary Carcinoma MX-1 Xenograft (intrarenal inoculation) in NU/NU BALB/C (nude) mice

CCCn1c(SC)nc(COC(=O)NC)c1COC(=O)NC
T/C (dose: 30.0 mg/kg/injection, schedule: Q04DX003 (ip), vehicle: saline): 62 % of control | T/C (dose: 60.0 mg/kg/injection, schedule: Q04DX003 (ip), vehicle: saline): 38 % of control | T/C (dose: 120.0 mg/kg/injection, schedule: Q04DX003 (ip), vehicle: saline): 7 % of control | T/C (dose: 240.0 mg/kg/injection, schedule: Q04DX003 (ip), vehicle: saline): -100 % of control

COc1cc([C@@H]2c3cc4c(cc3[C@@H](OC3OC5CO[C@@H](c6cccs6)OC5C(O)C3O)[C@H]3COC(=O)[C@H]23)OCO4)cc(OC)c1O (stereo not given in full)
T/C (dose: 8.75 mg/kg/injection, schedule: Q01DX010 (ip), vehicle: saline): 82 % of control | T/C (dose: 17.5 mg/kg/injection, schedule: Q01DX010 (ip), vehicle: saline): 74 % of control

COc1ccc(N=N/N=c2\sc3cc(OC)ccc3n2C)cc1
T/C (dose: 30.0 mg/kg/injection, schedule: Q04DX003 (ip), vehicle: saline with Tween-80): 68 % of control | T/C (dose: 60.0 mg/kg/injection, schedule: Q04DX003 (ip), vehicle: saline with Tween-80): 87 % of control | T/C (dose: 120.0 mg/kg/injection, schedule: Q04DX003 (ip), vehicle: saline with Tween-80): 65 % of control | T/C (dose: 240.0 mg/kg/injection, schedule: Q04DX003 (ip), vehicle: saline with Tween-80): 62 % of control

CN=C(N)N/N=C(\C)c1ccc2sc3ccc(/C(C)=N/NC(N)=NC)cc3c2c1
T/C (dose: 150.0 mg/kg/injection, schedule: Q04DX003 (ip), vehicle: saline with Tween-80): 90 % of control | T/C (dose: 300.0 mg/kg/injection, schedule: Q04DX003 (ip), vehicle: saline with Tween-80): 59 % of control

CC(=O)O[C@H]1C(=O)[C@@]2(C)C(C(OC(=O)c3ccccc3)[C@]3(O)C[C@H](OC(=O)C(OC(=O)CCCC(=O)NCCCN(C)C)C(NC(=O)c4ccccc4)c4ccccc4)C(C)=C1C3(C)C)C1(OC(C)=O)COC1C[C@@H]2O (stereo not given in full)
T/C (dose: 2.5 mg/kg/injection, schedule: Q01DX009 (ip), vehicle: water): 22 % of control | T/C (dose: 5.0 mg/kg/injection, schedule: Q01DX009 (ip), vehicle: water): 1 % of control | T/C (dose: 10.0 mg/kg/injection, schedule: Q01DX009 (ip), vehicle: water): 1 % of control | T/C (dose: 20.0 mg/kg/injection, schedule: Q01DX009 (ip), vehicle: water): -100 % of control | T/C (dose: 40.0 mg/kg/injection, schedule: Q01DX009 (ip), vehicle: water): -100 % of control

O=C1CCC(=O)N1CO
T/C (dose: 300.0 mg/kg/injection, schedule: Q04DX003 (sc), vehicle: saline): 73 % of control | T/C (dose: 600.0 mg/kg/injection, schedule: Q04DX003 (sc), vehicle: saline): 86 % of control

O=C(CCCN1CCC(C(O)c2ccc(F)cc2)CC1)c1ccc(F)cc1 (stereo not given)
T/C (dose: 25.0 mg/kg/injection, schedule: Q04DX003 (ip), vehicle: saline with Tween-80): 90 % of control | T/C (dose: 50.0 mg/kg/injection, schedule: Q04DX003 (ip), vehicle: saline with Tween-80): 83 % of control

COc1cc2c(cc1OC)-c1c3c(cc4c1[C@@H](C2)N(C)CC4)OCO3
T/C (dose: 37.5 mg/kg/injection, schedule: Q04DX003 (ip), vehicle: distilled water + alcohol): 56 % of control | T/C (dose: 75.0 mg/kg/injection, schedule: Q04DX003 (ip), vehicle: distilled water + alcohol): 55 % of control | T/C (dose: 150.0 mg/kg/injection, schedule: Q04DX003 (ip), vehicle: distilled water + alcohol): 68 % of control

COc1c2c(c(O)c3c4c(c(C)cc13)C1OC3(C(OC)OC5CC(C)(O)C(OC6CC(C)(O)C(O)C(C)O6)C(C)O5)OC1C(OC)(O4)C31CO1)C(=O)C(O)CC2OC1CC(C)(O)C(OC(C)=O)C(C)O1 (stereo not given)
T/C (dose: 0.06 mg/kg/injection, schedule: Q04DX003 (ip), vehicle: saline): 61 % of control | T/C (dose: 0.5 mg/kg/injection, schedule: Q04DX003 (ip), vehicle: saline): 45 % of control

CO[C@@]12[C@@H]3N[C@@H]3CN1C1=C(C(=O)C(NCC3CCCO3)=C(C)C1=O)[C@@H]2COC(N)=O (stereo not given in full)
T/C (dose: 6.25 mg/kg/injection, schedule: Q04DX003 (ip), vehicle: Klucel (hydroxypropylcellulose) (HPC)): 43 % of control | T/C (dose: 12.5 mg/kg/injection, schedule: Q04DX003 (ip), vehicle: Klucel (hydroxypropylcellulose) (HPC)): 56 % of control and 57 % of control | T/C (dose: 12.5 mg/kg/injection, schedule: Q04DX003 (ip), vehicle: distilled water + Tween-80): 1 % of control and 3 % of control | T/C (dose: 25.0 mg/kg/injection, schedule: Q04DX003 (ip), vehicle: Klucel (hydroxypropylcellulose) (HPC)): 35 % of control and 59 % of control | T/C (dose: 50.0 mg/kg/injection, schedule: Q04DX003 (ip), vehicle: Klucel (hydroxypropylcellulose) (HPC)): 28 % of control and 32 % of control | T/C (dose: 50.0 mg/kg/injection, schedule: Q04DX003 (ip), vehicle: distilled water + Tween-80): -4 % of control | T/C (dose: 100.0 mg/kg/injection, schedule: Q04DX003 (ip), vehicle: Klucel (hydroxypropylcellulose) (HPC)): 14 % of control

Cc1ccc(/C=C/C(=O)/C=C/c2ccc(C)o2)o1
T/C (dose: 100.0 mg/kg/injection, schedule: Q04DX003 (ip), vehicle: DMSO): 94 % of control | T/C (dose: 200.0 mg/kg/injection, schedule: Q04DX003 (ip), vehicle: DMSO): 112 % of control | T/C (dose: 800.0 mg/kg/injection, schedule: Q04DX003 (ip), vehicle: DMSO): 107 % of control

Nc1ccn([C@@H](C=O)C[C@@H](C=O)CO)c(=O)n1
T/C (dose: 75.0 mg/kg/injection, schedule: Q04DX003 (ip), vehicle: saline): 76 % of control | T/C (dose: 150.0 mg/kg/injection, schedule: Q04DX003 (ip), vehicle: saline): 124 % of control

COc1cc2c(c(OC)c1O)-c1ccc(OC)c(=O)cc1[C@@H](NC(=O)C(F)(F)F)CC2
T/C (dose: 2.5 mg/kg/injection, schedule: Q04DX003 (ip), vehicle: Klucel (hydroxypropylcellulose) (HPC)): 62 % of control | T/C (dose: 5.0 mg/kg/injection, schedule: Q04DX003 (ip), vehicle: Klucel (hydroxypropylcellulose) (HPC)): 60 % of control | T/C (dose: 10.0 mg/kg/injection, schedule: Q04DX003 (ip), vehicle: Klucel (hydroxypropylcellulose) (HPC)): 35 % of control | T/C (dose: 20.0 mg/kg/injection, schedule: Q04DX003 (ip), vehicle: Klucel (hydroxypropylcellulose) (HPC)): 34 % of control

CNC(=O)OCc1nc(SC)n(C)c1COC(=O)NC
T/C (dose: 28.75 mg/kg/injection, schedule: Q04DX003 (ip), vehicle: saline): -91 % of control | T/C (dose: 57.5 mg/kg/injection, schedule: Q04DX003 (ip), vehicle: saline): -85 % of control | T/C (dose: 115.0 mg/kg/injection, schedule: Q04DX003 (ip), vehicle: saline): -63 % of control

CS(C)(O)NC(N)=O
T/C (dose: 150.0 mg/kg/injection, schedule: Q04DX003 (ip), vehicle: water): 119 % of control | T/C (dose: 300.0 mg/kg/injection, schedule: Q04DX003 (ip), vehicle: water): 154 % of control | T/C (dose: 600.0 mg/kg/injection, schedule: Q04DX003 (ip), vehicle: water): 110 % of control | T/C (dose: 1200.0 mg/kg/injection, schedule: Q04DX003 (ip), vehicle: water): 74 % of control

CC1Oc2cc3c(-c4c(O)cc(O)c5c(O)c6c(cc45)OC(C)C(C)C6=O)c(O)cc(O)c3c(O)c2C(=O)C1C (stereo not given)
T/C (dose: 9.0 mg/kg/injection, schedule: Q04DX003 (ip), vehicle: suspension in saline): 21 % of control | T/C (dose: 12.0 mg/kg/injection, schedule: Q04DX003 (ip), vehicle: suspension in saline): 15 % of control

O=c1c(O)c(O)c1=O.[NH2-].[NH2-].[NH2-].[NH2-].[NH2-].[Ru+5]
T/C (dose: 12.5 mg/kg/injection, schedule: Q04DX003 (ip), vehicle: suspension in saline): 98 % of control | T/C (dose: 25.0 mg/kg/injection, schedule: Q04DX003 (ip), vehicle: suspension in saline): 74 % of control | T/C (dose: 50.0 mg/kg/injection, schedule: Q04DX003 (ip), vehicle: suspension in saline): 60 % of control

COC(=O)Nc1cn2cc(C(=O)c3cccs3)ccc2n1
T/C (dose: 300.0 mg/kg/injection, schedule: Q04DX003 (sc), vehicle: Klucel (hydroxypropylcellulose) (HPC)): 70 % of control | T/C (dose: 600.0 mg/kg/injection, schedule: Q04DX003 (sc), vehicle: Klucel (hydroxypropylcellulose) (HPC)): 74 % of control | T/C (dose: 1200.0 mg/kg/injection, schedule: Q04DX003 (sc), vehicle: Klucel (hydroxypropylcellulose) (HPC)): 102 % of control | T/C (dose: 2400.0 mg/kg/injection, schedule: Q04DX003 (sc), vehicle: Klucel (hydroxypropylcellulose) (HPC)): 96 % of control

O=C(O)CC1C(=O)OC2C3COC(=O)c4cc(O)c(O)c(O)c4-c4c(cc(O)c(O)c4O)C(=O)OC2C(OC(=O)c2cc(O)c(O)c4c2C1C(O)C(=O)O4)C(OC(=O)c1cc(O)c(O)c(O)c1)O3 (stereo not given)
T/C (dose: 25.0 mg/kg/injection, schedule: Q04DX003 (ip), vehicle: saline): 120 % of control | T/C (dose: 50.0 mg/kg/injection, schedule: Q04DX003 (ip), vehicle: saline): 99 % of control | T/C (dose: 100.0 mg/kg/injection, schedule: Q04DX003 (ip), vehicle: saline): 73 % of control

Cc1cc(N)c2ccccc2[n+]1CCCCCCCCCC[n+]1c(C)cc(N)c2ccccc21
T/C (dose: 0.75 mg/kg/injection, schedule: Q01DX010 (ip), vehicle: dextrose): 89 % of control | T/C (dose: 1.5 mg/kg/injection, schedule: Q01DX010 (ip), vehicle: dextrose): 79 % of control | T/C (dose: 2.0 mg/kg/injection, schedule: Q01DX010 (ip), vehicle: dextrose): 47 % of control | T/C (dose: 3.0 mg/kg/injection, schedule: Q01DX010 (ip), vehicle: dextrose): 41 % of control
